Patent US8916526B2, “Flavanone derivative” (National University Corporation Okayama University, priority 2009, dated 2014)
Values after ≈ are worked out from the molar mass of the structure shown.

Key:
[1] = test system: Vancomycin intermediate-resistant Staphylococcus aureus Mu50; test: In vitro infectivity assay (MIC), Exp. Ex. 2-1; type: cell-based; details: Staphylococcus aureus, VISA; Gram-positive; microdilution, MIC after 24 h; read-out: MIC VISA Mu50
How it was run: (§1)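 Inoculate bacteria (about 10^5 CUF/[…]) into NaCl-supplemented (0.85%) Mueller-Hinton broth with compound dilutions, incubate 24 hours at 35° C, then record the minimum inhibitory concentration. Repeated three times.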

[2] = test system: Vancomycin-resistant enterococci FN-1; test: In vitro infectivity assay (MIC), Exp. Ex. 2-1; type: cell-based; details: Enterococcus, VRE; Gram-positive; microdilution, MIC after 24 h; read-out: MIC VRE FN-1
How it was run: as §1

[3] = test system: Vancomycin-resistant enterococci NCTC 12201; test: In vitro infectivity assay (MIC), Exp. Ex. 2-1; type: cell-based; details: Enterococcus, NCTC 12201 / VRE; Gram-positive; microdilution, MIC after 24 h; read-out: MIC VRE NCTC 12201
How it was run: as §1

[4] = test system: Methicillin sensitive S. aureus 209P; test: In vitro infectivity assay (MIC), Exp. Ex. 2-1; type: cell-based, Staphylococcus aureus; details: Staphylococcus aureus, 209P / MSSA; Gram-positive; microdilution, MIC after 24 h; read-out: MIC MSSA 209P
How it was run: as §1

[5] = test system: Methicillin-resistant S. aureus COL; test: In vitro infectivity assay (MIC), Exp. Ex. 2-1; type: cell-based, Staphylococcus aureus; details: Staphylococcus aureus, MRSA; Gram-positive; microdilution, MIC after 24 h
[6] = test system: Methicillin-resistant S. aureus N315; test: In vitro infectivity assay (MIC), Exp. Ex. 2-1; type: cell-based, Staphylococcus aureus; details: Staphylococcus aureus, MRSA; Gram-positive; microdilution, MIC after 24 h; read-out: MIC MRSA N315
How it was run: as §1

[7] = test system: Methicillin-resistant S. aureus OM481; test: In vitro infectivity assay (MIC), Exp. Ex. 2-1; type: cell-based, Staphylococcus aureus; details: Staphylococcus aureus, MRSA; Gram-positive; microdilution, MIC after 24 h; read-out: MIC MRSA OM481
How it was run: as §1

[8] = test system: Methicillin-resistant S. aureus OM584; test: In vitro infectivity assay (MIC), Exp. Ex. 2-1; type: cell-based, Staphylococcus aureus; details: Staphylococcus aureus, MRSA; Gram-positive; microdilution, MIC after 24 h; read-out: MIC MRSA OM584
How it was run: as §1

[9] = test system: Streptococcus pneumoniae R6; test: In vitro infectivity assay (MIC), Exp. Ex. 2-1; type: cell-based; details: Streptococcus pneumoniae, R6; Gram-positive; microdilution, MIC after 24 h; read-out: MIC S. Pneumoniae R6
Escherichia coli K-12 = test: Antibacterial activity (MIC) against Gram-negative strains, microdilution; type: cell-based; details: K12, MIC after 24 h, read-out: MIC (Gram-nagative) K-12
How it was run: (§2)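 CLSI broth microdilution in Mueller-Hinton broth with 0.85% NaCl, inoculum about 10^5 […]. Incubated 35° C for 24 hours; MIC taken as the minimum inhibitory concentration, measured three times.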

[10] = test system: Pseodomonas aeruginosa PAOI; test: as above; type: cell-based; details: MIC after 24 h, read-out: MIC (Gram-nagative) PAO1
How it was run: as §2

E. coli DNA gyrase = target: T1, E. coli DNA gyrase (Escherichia coli, UniProt P0AES4+P0AES6); test: DNA gyrase inhibition (supercoiling kit), Exp. Ex. 2-2; type: biochemical
T1 construct: purchased John Innes Enterprises #K0001
How it was run: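 Supercoiling of relaxed pBR322 DNA ([…]) by 1 U E. coli gyrase, 37° C for 30 minutes, in 35 mM Tris-HCl pH 7.5 with 1 mM ATP, 4 mM MgCl2, 24 mM KCl, spermidine and DTT. Products resolved by electrophoresis to derive IC50.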

[11] = target: T2, Escherichia coli Topoisomerase IV (Escherichia coli, UniProt P0AFI2+P20083); test: Topoisomerase IV inhibition (decatenation kit), Exp. Ex. 2-3; type: biochemical; details: decatenation of kDNA, 37° C., 30 minutes; read-out: IC50 (E. coli topoisomerase IV inhibitions)
T2 construct: purchased John Innes Enterprises
How it was run: (§3)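 Decatenation of 200 ng kinetoplast DNA by 1 unit enzyme, 30 min at 37 °C. S. aureus: 50 mM Tris-HCl pH 7.5, 350 mM potassium glutamate, 1.5 mM ATP; E. coli: 50 mM HEPES-KOH pH 7.6, 100 mM potassium glutamate, 1 mM ATP. Products resolved on 1.0% agarose in TAE.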

[12] = target: T3, Staphylococcus aureus Topoisomerase IV (Staphylococcus aureus, UniProt P0C1S7+P0C1U9); test: as above; type: biochemical
T3 construct: purchased John Innes Enterprises
How it was run: as §3

MRSA N315 = test: In vitro infectivity assay (MIC), broth dilution, Exp. Ex. 1-1; type: cell-based, Staphylococcus aureus; details: MRSA N315, Mueller-Hinton broth, 35° C., 24 hours
Method: (§4) The antibacterial activities were measured based on broth dilution techniques of international standards (Clinical Laboratory Standards Institute: CLSI). The activities were shown by minimum inhibitory concentrations (MICs) determined by inoculating the above-mentioned strains at a concentration of about 10^5 […] into Mueller-Hinton broth (manufactured by Difco) containing 0.85% NaCl in 96-well microplates and incubating the plates at 35° C. for 24 hours. Measurement was carried out three times.
(§5) The antibacterial activities of the compounds of the present invention against various strains such as methicillin-resistant Staphylococcus aureus (MRSA), vancomycin intermediate-resistant Staphylococcus aureus (VISA), methicillin-sensitive Staphylococcus aureus (MSSA), and vancomycin-resistant enterococci (VRE) were examined. Of the bacteria used in MIC measurement in this test example, clinical bacteria of MRSA (OM481 strain and OM584 strain) were supplied from Okayama University Hospital (Japan). An MRSA strain N315, a vancomycin intermediate-resistant Staphylococcus aureus (VISA) strain Mu50, and a methicillin-sensitive Staphylococcus aureus (MSSA) strain FDA 209P were used as controls. Vancomycin-resistant enterococcus (VRE) strains NCTC 12201 and FN-1 were supplied from the National Institute of Infectious Disease (Japan).

MRSA OM481 = test: as above; type: cell-based, Staphylococcus aureus; details: MRSA OM481, Mueller-Hinton broth, 35° C., 24 hours
Method: as §4, §5

MRSA OM58 = test: as above; type: cell-based, Staphylococcus aureus; details: MRSA OM58, Mueller-Hinton broth, 35° C., 24 hours
Method: as §4, §5

MSSA FDA 209P = test: as above; type: cell-based, Staphylococcus aureus; details: MSSA FDA 209P, Mueller-Hinton broth, 35° C., 24 hours
Method: as §4, §5

VISA Mu50 = test: as above; type: cell-based, Staphylococcus aureus; details: VISA Mu50, Mueller-Hinton broth, 35° C., 24 hours
Method: as §4, §5

VRE FN-1 = test: as above; type: cell-based, enterococci; details: VRE FN-1, Mueller-Hinton broth, 35° C., 24 hours
Method: as §4, §5

VRE NCTC12201 = test: as above; type: cell-based, enterococci; details: VRE NCTC12201, Mueller-Hinton broth, 35° C., 24 hours
Method: as §4, §5

[13] = target: T4, DNA gyrase of Escherichia coli (Escherichia coli, UniProt P0AES4+P0AES6); test: DNA gyrase inhibition (supercoiling assay kit), Exp. Ex. 1-2; type: biochemical; details: E. coli DNA gyrase supercoiling, relaxed pBR322, 37° C., 30 minutes
T4 construct: purchased John Innes Enterprises #K0001
Method: As a kit for measurement of DNA gyrase of Escherichia coli, a product purchased from John Innes Enterprises (Gyrase Supercoiling assay kit #K0001) was used. Relaxed DNA was modified with gyrase into supercoiled DNA, and reaction products were separated by electrophoresis depending on the sizes of the molecular weights to examine anti-gyrase effects (IC50). One unit (1 U) of DNA gyrase and […] of relaxed pBR322 DNA were added to […] of the reaction solution, and the mixture was allowed to react at 37° C. for 30 minutes in the presence of 35 mM Tris-HCl (pH 7.5), 24 mM KCl, 4 mM MgCl2, 2 mM DTT, 1.8 mM spermidine, 1 mM ATP, 6.5% (w/v) glycerol, and 0.1 mg/ml BSA. The reactions were stopped using […] of a reaction stop solution (40% sucrose, 100 mM Tris-HCl (pH 7.5), 1 mM EDTA, 0.5 mg/ml bromophenol blue).

T4 sequence (P0AES4 whole entry, one chain of several): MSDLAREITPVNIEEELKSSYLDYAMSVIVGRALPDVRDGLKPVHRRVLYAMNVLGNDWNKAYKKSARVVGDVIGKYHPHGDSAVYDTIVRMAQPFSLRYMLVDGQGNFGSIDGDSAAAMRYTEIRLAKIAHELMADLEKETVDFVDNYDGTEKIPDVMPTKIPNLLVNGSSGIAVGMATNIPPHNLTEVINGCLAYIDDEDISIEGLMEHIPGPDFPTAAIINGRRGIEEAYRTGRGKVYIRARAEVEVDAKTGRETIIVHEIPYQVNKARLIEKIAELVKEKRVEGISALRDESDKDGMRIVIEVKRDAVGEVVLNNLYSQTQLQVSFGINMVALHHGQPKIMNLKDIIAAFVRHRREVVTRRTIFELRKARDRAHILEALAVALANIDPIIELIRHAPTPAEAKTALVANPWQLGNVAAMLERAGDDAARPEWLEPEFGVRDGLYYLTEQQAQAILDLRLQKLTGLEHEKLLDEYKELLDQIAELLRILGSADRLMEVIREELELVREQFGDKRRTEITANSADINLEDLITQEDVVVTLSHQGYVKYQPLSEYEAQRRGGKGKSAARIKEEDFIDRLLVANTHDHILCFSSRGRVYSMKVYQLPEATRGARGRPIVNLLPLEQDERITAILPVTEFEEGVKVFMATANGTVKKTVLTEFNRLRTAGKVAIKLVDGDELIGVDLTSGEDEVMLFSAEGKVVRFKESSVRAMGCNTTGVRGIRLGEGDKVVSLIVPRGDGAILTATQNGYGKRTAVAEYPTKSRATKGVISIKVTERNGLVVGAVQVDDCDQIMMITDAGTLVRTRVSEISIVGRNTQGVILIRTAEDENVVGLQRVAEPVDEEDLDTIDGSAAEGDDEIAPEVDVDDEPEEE
T1 sequence (P0AES4 whole entry, one chain of several): as above
T2 sequence (P20083 whole entry): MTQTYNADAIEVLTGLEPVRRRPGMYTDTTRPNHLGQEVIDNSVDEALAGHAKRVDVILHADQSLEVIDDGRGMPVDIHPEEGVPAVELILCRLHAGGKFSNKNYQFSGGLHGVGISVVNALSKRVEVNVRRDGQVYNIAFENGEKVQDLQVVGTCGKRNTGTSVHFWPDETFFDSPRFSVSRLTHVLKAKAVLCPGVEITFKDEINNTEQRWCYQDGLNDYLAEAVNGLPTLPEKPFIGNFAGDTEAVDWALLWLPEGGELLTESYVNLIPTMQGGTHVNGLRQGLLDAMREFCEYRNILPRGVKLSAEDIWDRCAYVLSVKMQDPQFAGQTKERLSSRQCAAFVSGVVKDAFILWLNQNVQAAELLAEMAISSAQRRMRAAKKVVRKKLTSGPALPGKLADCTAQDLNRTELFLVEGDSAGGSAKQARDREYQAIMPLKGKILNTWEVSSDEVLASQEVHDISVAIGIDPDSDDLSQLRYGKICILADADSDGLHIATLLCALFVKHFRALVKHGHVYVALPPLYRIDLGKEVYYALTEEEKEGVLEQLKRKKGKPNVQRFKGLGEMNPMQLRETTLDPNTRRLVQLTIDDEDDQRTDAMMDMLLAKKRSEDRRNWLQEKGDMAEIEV
T2 sequence (P0AFI2 whole entry): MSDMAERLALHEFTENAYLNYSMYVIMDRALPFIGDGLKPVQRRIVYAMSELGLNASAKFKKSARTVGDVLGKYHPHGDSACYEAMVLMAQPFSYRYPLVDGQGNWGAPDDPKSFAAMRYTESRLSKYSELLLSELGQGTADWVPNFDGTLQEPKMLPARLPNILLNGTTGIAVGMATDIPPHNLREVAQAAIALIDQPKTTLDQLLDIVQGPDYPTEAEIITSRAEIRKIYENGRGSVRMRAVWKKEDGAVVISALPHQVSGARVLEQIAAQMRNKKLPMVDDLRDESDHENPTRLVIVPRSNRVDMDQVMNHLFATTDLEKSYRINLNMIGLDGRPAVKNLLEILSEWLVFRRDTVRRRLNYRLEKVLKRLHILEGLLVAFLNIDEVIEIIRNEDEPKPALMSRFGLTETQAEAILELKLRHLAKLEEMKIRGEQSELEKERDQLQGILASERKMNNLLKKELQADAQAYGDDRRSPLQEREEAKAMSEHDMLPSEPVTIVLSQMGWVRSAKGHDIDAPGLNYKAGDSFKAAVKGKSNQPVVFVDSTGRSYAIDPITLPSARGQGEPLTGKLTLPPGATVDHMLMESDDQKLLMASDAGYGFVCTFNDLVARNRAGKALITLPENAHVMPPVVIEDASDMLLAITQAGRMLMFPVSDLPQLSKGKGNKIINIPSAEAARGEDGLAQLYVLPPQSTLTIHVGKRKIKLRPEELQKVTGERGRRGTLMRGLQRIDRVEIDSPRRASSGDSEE
T3 sequence (P0C1U9 whole entry): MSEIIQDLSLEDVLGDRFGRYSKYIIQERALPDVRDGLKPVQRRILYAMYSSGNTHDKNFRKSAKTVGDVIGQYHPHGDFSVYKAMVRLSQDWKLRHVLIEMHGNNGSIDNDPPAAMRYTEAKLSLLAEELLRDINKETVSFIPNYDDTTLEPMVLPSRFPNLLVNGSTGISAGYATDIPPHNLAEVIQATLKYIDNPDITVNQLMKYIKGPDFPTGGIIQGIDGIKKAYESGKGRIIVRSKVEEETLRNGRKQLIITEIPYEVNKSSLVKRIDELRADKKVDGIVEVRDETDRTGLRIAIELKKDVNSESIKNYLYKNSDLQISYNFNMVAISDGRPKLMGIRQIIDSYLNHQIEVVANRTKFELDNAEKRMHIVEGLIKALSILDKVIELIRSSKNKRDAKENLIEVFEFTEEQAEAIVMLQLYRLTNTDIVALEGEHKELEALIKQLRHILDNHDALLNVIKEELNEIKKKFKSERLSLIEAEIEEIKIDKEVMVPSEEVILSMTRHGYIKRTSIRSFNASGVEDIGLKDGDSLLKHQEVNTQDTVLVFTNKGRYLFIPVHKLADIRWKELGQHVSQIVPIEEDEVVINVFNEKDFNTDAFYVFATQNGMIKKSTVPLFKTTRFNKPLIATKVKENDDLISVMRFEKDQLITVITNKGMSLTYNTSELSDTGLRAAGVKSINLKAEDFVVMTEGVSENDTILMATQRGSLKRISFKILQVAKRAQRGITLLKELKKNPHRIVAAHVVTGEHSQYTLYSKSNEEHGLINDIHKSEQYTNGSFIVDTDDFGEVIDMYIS
T3 sequence (P0C1S7 whole entry): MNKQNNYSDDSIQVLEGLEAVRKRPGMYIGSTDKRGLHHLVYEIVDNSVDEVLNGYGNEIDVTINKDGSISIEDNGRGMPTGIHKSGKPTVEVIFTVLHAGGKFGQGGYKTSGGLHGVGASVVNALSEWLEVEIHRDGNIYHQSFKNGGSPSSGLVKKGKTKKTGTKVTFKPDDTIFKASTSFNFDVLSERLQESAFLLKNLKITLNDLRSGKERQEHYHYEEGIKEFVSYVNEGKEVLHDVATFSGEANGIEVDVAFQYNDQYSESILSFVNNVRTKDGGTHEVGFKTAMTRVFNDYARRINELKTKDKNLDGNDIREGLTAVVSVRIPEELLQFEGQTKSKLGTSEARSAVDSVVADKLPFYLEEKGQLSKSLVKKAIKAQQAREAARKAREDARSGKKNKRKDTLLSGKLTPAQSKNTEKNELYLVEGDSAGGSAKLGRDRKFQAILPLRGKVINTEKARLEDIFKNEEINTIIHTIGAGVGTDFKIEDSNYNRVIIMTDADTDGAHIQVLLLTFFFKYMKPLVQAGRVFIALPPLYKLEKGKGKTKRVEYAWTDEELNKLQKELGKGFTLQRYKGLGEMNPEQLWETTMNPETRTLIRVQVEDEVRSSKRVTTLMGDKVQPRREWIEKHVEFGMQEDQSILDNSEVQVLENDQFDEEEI

Cc1ccc(CC(=O)OC[C@H]2O[C@@H](Oc3c(-c4ccc(O)c(O)c4)oc4cc(O)cc(O)c4c3=O)[C@H](OC(=O)Cc3ccc(C)cc3)[C@@H](O)[C@H]2O)cc1 [Compound 14d, 2-(3′,4′-Dihydroxyphenyl)-5,7-dihydroxy-3-β-D-[2″,6″-di-O-(4-methylphenylacetyl)]galactosyl-4H-chromen-4-one]
MIC [1]: 4 µg/mL (≈ 5.49 µM) | MIC [2]: 8 µg/mL (≈ 11 µM) | MIC [3]: 4 µg/mL (≈ 5.49 µM) | MIC [4]: 4 µg/mL (≈ 5.49 µM) | MIC [5]: 16 µg/mL (≈ 22 µM) | MIC [6]: 8 µg/mL (≈ 11 µM) | MIC [7]: 2 µg/mL (≈ 2.74 µM) | MIC [8]: 2 µg/mL (≈ 2.74 µM) | MIC [9]: 2 µg/mL (≈ 2.74 µM) | MIC (Escherichia coli K-12): > 128 µg/mL | MIC [10]: > 128 µg/mL | IC50 (E. coli DNA gyrase): 2210 nM | IC50 [11]: 8520 nM | IC50 [12]: 2690 nM | melting point: 125 to 127 °C

Cc1ccc(CCC(=O)c2cc(O)c3c(=O)c(C(=O)CCc4ccc(C)cc4)c(-c4ccc(O)c(O)c4)oc3c2)cc1 [Compound 2a, 2-(3′,4′-Dihydroxyphenyl)-5-hydroxy-3,7-di-(4-methylphenylpropanoyl)-4H-chromen-4-one]
melting point: 105 to 107 °C

O=C(CCc1ccc(O)cc1)OC[C@H]1O[C@@H](Oc2c(-c3ccc(O)c(O)c3)oc3cc(O)cc(O)c3c2=O)[C@H](OC(=O)CCc2ccc(O)cc2)[C@@H](O)[C@H]1O [Compound 14f, 2-(3′,4′-Dihydroxyphenyl)-5,7-dihydroxy-3-β-D-{2″,6″-di-O-[3′″-(4-hydroxyphenylpropanoyl)]}galactosyl-4H-chromen-4-one]
MIC [1]: 2 µg/mL (≈ 2.63 µM) | MIC [2]: 4 µg/mL (≈ 5.26 µM) | MIC [3]: 4 µg/mL (≈ 5.26 µM) | MIC [4]: 2 µg/mL (≈ 2.63 µM) | MIC [5]: 4 µg/mL (≈ 5.26 µM) | MIC [6]: 2 µg/mL (≈ 2.63 µM) | MIC [7]: 1 µg/mL (≈ 1.31 µM) | MIC [8]: 1 µg/mL (≈ 1.31 µM) | MIC [9]: 4 µg/mL (≈ 5.26 µM) | MIC (Escherichia coli K-12): > 128 µg/mL | MIC [10]: > 128 µg/mL | IC50 (E. coli DNA gyrase): 2390 nM | IC50 [11]: 8860 nM | IC50 [12]: 1590 nM | melting point: 149 to 150 °C

O=c1c([C@@H]2O[C@H](CO)[C@H](O)[C@H](O)[C@H]2O)c(-c2ccc(O)c(O)c2)oc2cc([C@@H]3O[C@H](CO)[C@H](O)[C@H](O)[C@H]3O)cc(O)c12 [Compound 6, 2-(3′,4′-Dihydroxyphenyl)-5-hydroxy-3,7-di-β-D-galactosyl-4H-chromen-4-one]
melting point: 215 to 217 °C

O=C(CCc1ccc(F)cc1)c1cc(O)c2c(=O)c(C(=O)CCc3ccc(F)cc3)c(-c3ccc(O)c(O)c3)oc2c1 [Compound 2b, 2-(3′,4′-Dihydroxyphenyl)-5-hydroxy-3,7-di-(4-fluorophenylpropanoyl)-4H-chromen-4-one]
melting point: 119 to 121 °C

O=c1c(O[C@@H]2O[C@H](CO)[C@@H](O)[C@H](O)[C@H]2O)c(-c2ccc(O)c(O)c2)oc2cc(O)cc(O)c12 [Compound 17, 2-(3′4′-Dihydroxy)-5,7-dihydroxy-3-β-D-glucosyl-4H-chromen-4-one]
MIC (MRSA N315; Staphylococcus aureus, read-out: MIC MRSA N315): > 128 µg/mL | MIC (MRSA OM481; Staphylococcus aureus, read-out: MIC MRSA OM481): > 128 µg/mL | MIC (MRSA OM58; Staphylococcus aureus, read-out: MIC MRSA OM58): > 128 µg/mL | MIC (MSSA FDA 209P; Staphylococcus aureus, read-out: MIC MSS 209P): > 128 µg/mL | MIC (VISA Mu50; Staphylococcus aureus, read-out: MIC VISA Mu50): > 128 µg/mL | MIC (VRE FN-1; Enterococcus, read-out: MIC VRE FN-1): > 128 µg/mL | MIC (VRE NCTC12201; Enterococcus, read-out: MIC VRE NCTC12201): > 128 µg/mL | IC50 ([13]; read-out: Gyrase inhibitory activity IC50 (converted)): > 25800 nM

CCOc1ccc(CCC(=O)O[C@H]2[C@H](Oc3c(-c4ccc(O)c(O)c4)oc4cc(O)cc(O)c4c3=O)O[C@H](CO)[C@@H](O)[C@@H]2OC(=O)CCc2ccc(OCC)cc2)cc1 [Compound 15b, 2-(3′,4′-Dihydroxy)-5,7-dihydroxy-3-β-D-(2″,3″-di-p-ethoxyphenylethylcarboxy)glucosyl-4H-chromen-4-one]
MIC MRSA N315 (MRSA N315): 2 µg/mL (≈ 2.45 µM) | MIC MRSA OM481 (MRSA OM481): 4 µg/mL (≈ 4.9 µM) | MIC MRSA OM58 (MRSA OM58): 8 µg/mL (≈ 9.79 µM) | MIC MSS 209P (MSSA FDA 209P): 2 µg/mL (≈ 2.45 µM) | MIC VISA Mu50 (VISA Mu50): 4 µg/mL (≈ 4.9 µM) | MIC VRE FN-1 (VRE FN-1): 8 µg/mL (≈ 9.79 µM) | MIC VRE NCTC 12201 (VRE NCTC12201): 8 µg/mL (≈ 9.79 µM) | Gyrase inhibitory activity IC50 [13]: 9.23 µg/mL
